What was measured:
Type in all cases: in vivo
rats = assay: Hypotensive activity (manner of Weeks and Jones, Proc. Soc. Exp. Biol. and Med. 104, 646 (1960)); details: Rattus norvegicus; oral administration to rats; read-out: MED100 (minimal effective dose), hypotensive
Excerpt: The free bases and pharmacologically acceptable acid addition salts of the compounds of Formula I (a, b and c) are also useful in lowering blood pressure when administered to humans and animals. This activity makes them useful in the treatment of essential hypertension. […] Exp. Biol. and Med. 104, 646 (1960). The following compounds typical of this invention have (by oral administration to rats) MED100 (minimal effective dose) as shown in the table below.

mice [1] = assay: Chimney test (tranquilizing effect; ability of mice to back up and out of a vertical glass cylinder within 30 seconds); details: Mus musculus, ip, intraperitoneal injection, 50 percent of the mice failed within 30 seconds, read-out: ED50, Ch (chimney test)
Excerpt: (§1) The free bases and acid addition salts of the novel compounds of Formula I are useful as central nervous system (CNS) depressants when administered to humans and animals.
(§2) Tranquilizing effects of compounds of this invention are shown by the following tests in mice:
Chimney test: [Med. Exp. 4, 145 (1961)]: The test determines the ability of mice to back up and out of a verticle glass cylinder within 30 seconds. At the effective dosage, 50 percent of the mice failed doing it.

mice [2] = assay: Nicotine antagonism test (nicotine salicylate 2 mg./kg. overstimulation, convulsions, tonic extensor fits, death); details: Mus musculus, ip, intraperitoneal injection 30 minutes before nicotine salicylate 2 mg./kg., (3) = death, read-out: ED50, Ni (nicotine antagonism (3) test)
Experimental: as §2
Nicotine antagonism test: Mice in a group of 6 are injected with the test compound. Thirty minutes later the mice including control (untreated) mice are injected with nicotine salicylate (2 mg./kg.). The control mice show overstimulation, i.e., (1) running convulsions followed by (2) tonic extensor fits; followed by (3) death.
Ni = nicotine antagonism (3) test

mice [3] = assay: Pedestal test (tranquilizing effect; mice staying on the pedestal for more than 1 minute); details: Mus musculus, ip, 1 min, intraperitoneal injection, stay on the pedestal for more than 1 minute, read-out: ED50, P (pedestal test)
Experimental: as §1, §2
Pedestal test: The untreated mouse leaves a standard pedestal in less than a minute to climb back to the floor of the standard mouse box. Tranquilized mice will stay on the pedestal for more than 1 minute.

mice [4] = assay: Dish test (tranquilizing effect; mice remaining in Petri dish for more than 3 minutes); details: Mus musculus, ip, 0.05 h, intraperitoneal injection, 50 percent of the mice remain in the dish more than 3 minutes, read-out: ED50, D (dish test)
Experimental: as §1, §2
Dish test: Mice in Petri dishes (10 cm. diameter, 5 cm. high, partially embedded in wood shavings), climb out in a very short time, when not treated. Mice remaining in the dish for more than 3 minutes indicates tranquilization. ED50 equals the dose of test compound at which 50 percent of the mice remain in the dish.

| SMILES | minimal effective dose (rats) [mg/kg] | ED50 (mice [1]) [mg/kg] | ED50 (mice [2]) [mg/kg] | ED50 (mice [3]) [mg/kg] | ED50 (mice [4]) [mg/kg] |
| --- | --- | --- | --- | --- | --- |
| Cl.O=C(CCCNC1CCC2(CC1)Cc1ccccc1C2)c1ccc(F)cc1 [4'-Fluoro-4-[[spiro[cyclohexane-1,2'-indan]-4-yl]amino]butyrophenone hydrochloride] | 50 |  |  |  |  |
| Cl.O=C(CCCNC1CCC2(CC1)Cc1ccccc1C2O)c1ccc(F)cc1 (centres unmarked) [4'-Fluoro-4-[[1'-hydroxyspiro[cyclohexane-1,2'-indan]-4-yl]amino]butyrophenone hydrochloride] | 50 |  |  |  |  |
| Cl.O=C(CCCNC1CCC2(CCCc3ccccc32)CC1)c1ccc(F)cc1 (centres unmarked) [4'-Fluoro-4-[3',4'-dihydrospiro[cyclohexane-1,1'(2'H)-naphthalen]-4-ylamino]butyrophenone hydrochloride] |  | 25 | 5 | 16 | 10 |
| Cl.O=C(CCCNC1CCC2(CCc3ccccc3C2)CC1)c1ccc(F)cc1 (centres unmarked) [4'-Fluoro-4-[[3',4'-dihydrospiro[cyclohexane-1,2'(1'H)-naphthalen]-4-yl]amino]butyrophenone hydrochloride] |  | 9.9 | 7 | 12.5 | 9.9 |
| CN(CCCC(=O)c1ccc(F)cc1)C1CCC2(CC1)Cc1ccccc1C2.Cl [4'-Fluoro-4-[methyl[spiro[cyclohexane-1,2'-indan]-4-yl]amino]butyrophenone hydrochloride] |  | 16 | 4 | 9 | 3.6 |

Reference: US3932425A, “Benzospiran derivatives” (The Upjohn Company, priority 1974, dated 1976)
